Measured values published in patent publication US20200377551A1, “PEPTIDE CONSTRUCTS AND METHODS FOR ENHANCEMENT OF INTERFERON PRODUCTION” (Wake Forest University Health Sciences, priority 2019, published 2020).
Read-outs that look alike come from different tables or passages of the source.

Tests used:
[1] = tested on: Sendai virus; assay type: cell-based
[2] = tested on: RLR signaling; assay type: cell-based
[3] = tested on: RLR signaling; test: Q-PCR analysis of IFN-β expression in Hep3B cells transfected with Poly(I:C); assay type: cell-based; details: Hep3B control cells; effect markedly impaired upon MCT1 knockdown
[4] = tested on: MAVS signaling; assay type: cell-based
[5] = tested on: RLR signaling; assay type: cell-based; remark: listed apart in the source
[6] = tested on: VSV-GFP; assay type: cell-based, Vesicular stomatitis virus
[7] = tested on: iBMM cells; assay type: cell-based
[8] = tested on: RLR signaling; assay type: cell-based, mice
[9] = target: T1, RIG-I/MAVS (Homo sapiens, UniProt Q7Z434); test: Immunoprecipitation of activated RIG-I and MAVS in HEK293 cells; assay type: cell-based; details: basal and Sendai virus-infected conditions
T1 construct: host or cells: HEK293 (per the earlier reading)
T1 sequence (Q7Z434 whole entry): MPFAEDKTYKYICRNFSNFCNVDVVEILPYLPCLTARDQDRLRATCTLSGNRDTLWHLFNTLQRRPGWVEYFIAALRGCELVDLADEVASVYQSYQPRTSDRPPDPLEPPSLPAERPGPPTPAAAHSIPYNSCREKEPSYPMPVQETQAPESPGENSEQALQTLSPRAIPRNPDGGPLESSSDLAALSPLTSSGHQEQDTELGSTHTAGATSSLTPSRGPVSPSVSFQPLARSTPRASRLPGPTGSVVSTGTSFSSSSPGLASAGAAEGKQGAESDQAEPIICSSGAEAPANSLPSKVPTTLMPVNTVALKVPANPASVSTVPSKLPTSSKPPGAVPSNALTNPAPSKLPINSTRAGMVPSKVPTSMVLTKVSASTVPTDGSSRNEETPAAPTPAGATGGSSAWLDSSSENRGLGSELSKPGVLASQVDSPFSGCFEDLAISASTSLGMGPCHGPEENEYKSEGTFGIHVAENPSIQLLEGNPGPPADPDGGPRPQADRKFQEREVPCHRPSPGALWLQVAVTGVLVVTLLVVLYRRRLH

[10] = target: T2, MAVS (Homo sapiens, UniProt Q7Z434); test: MAVS mitochondria localization in HEK293 cells (immunoblot of mitochondria fraction, immunofluorescence)
Target sequence in this assay (Q7Z434 whole entry): as above

[11] = target: T2, MAVS; test: Lactate-MAVS binding (biotin-lactate pulldown, immunoprecipitation, in vitro binding)
Target sequence in this assay (Q7Z434 2-540 limits assumed): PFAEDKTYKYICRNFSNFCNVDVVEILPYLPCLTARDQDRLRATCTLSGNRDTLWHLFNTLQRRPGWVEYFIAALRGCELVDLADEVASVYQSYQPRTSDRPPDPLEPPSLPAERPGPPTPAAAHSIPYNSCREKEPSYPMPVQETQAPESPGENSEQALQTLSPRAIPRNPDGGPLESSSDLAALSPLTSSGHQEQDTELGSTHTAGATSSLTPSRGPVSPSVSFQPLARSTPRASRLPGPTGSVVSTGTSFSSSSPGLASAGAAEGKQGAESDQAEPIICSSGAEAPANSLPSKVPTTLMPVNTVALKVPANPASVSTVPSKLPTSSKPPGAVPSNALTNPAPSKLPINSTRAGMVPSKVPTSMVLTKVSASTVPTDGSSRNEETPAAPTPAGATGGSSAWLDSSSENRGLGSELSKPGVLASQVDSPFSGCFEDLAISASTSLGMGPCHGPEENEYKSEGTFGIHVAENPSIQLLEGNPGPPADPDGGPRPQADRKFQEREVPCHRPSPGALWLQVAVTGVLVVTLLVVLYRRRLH

[12] = tested on: HSV; parameters: species or system mice; details: mouse, in vivo
[13] = tested on: VSV; assay type: in vivo; details: mice; sodium oxamate (750 mg/kg)
[14] = tested on: HEK293 cells; test: Lactate level measurement in HEK293 cells; assay type: cell-based; details: sodium oxamate (20 mM) overnight
[15] = tested on: MAVS-TBK1-IRF3; test: IRF3 and TBK1 phosphorylation and MAVS aggregation in cells upon RLR activation; assay type: cell-based; details: data not shown
Experimental: In vivo and in vitro MAVS aggregation assays. In vivo MAVS aggregation was performed according to published protocol (Hou et al., 2011). In brief, mitochondria were isolated by using the Mitochondria isolation kit (Thermo 89874), and mitochondria pellet was suspended in 1×sample buffer (0.5×TBE, 10% glycerol, 2% SDS, and 0.0025% bromophenol blue) and subjected to Semi-denaturing detergent agarose gel electrophoresis (SDD-AGE). Samples were loaded onto a vertical 1.5% agarose gel (Bio-Rad). After electrophoresis in the running buffer (1×TBE and 0.1% SDS) for 40 min with a constant voltage of 80-100 V at 4° C., the proteins were transferred to Immobilon membrane (Millipore) for immunoblotting.

[16] = tested on: HeLa cells; test: Immunofluorescence cellular localization of peptides in HeLa cells; assay type: cell-based; details: HeLa cells pretreated with peptides; MAVS or Tat antibody staining; data not shown
[17] = tested on: HK2; test: Immunoblot of HK2 level in the mitochondria fraction of THP1 cells; details: Poly(I:C) or HTDNA transfection or LPS stimulation
[18] = tested on: HEK293 cells; test: Metabolomics analysis of HEK293 cells after Poly(I:C) transfection; assay type: cell-based
Source text: To investigate whether energy metabolism participates in regulating type-I IFN production, an unbiased, a systemic metabolomics approach was employed to examine the global metabolic changes during RLR-induced type-I IFN production. Changes of metabolites in glycolysis or oxidative phosphorylation were observed upon transfection of HEK293 cells with Poly(I:C) and harvesting for metabolomics analysis. […] As the direct pyruvate downstream metabolite, Acetyl-CoA production would be expected to decrease due to the reduction in pyruvate level, leading to the slower consumption of OAA for citrate production and thus maintaining the OAA level.

[19] = 2 hours post PolyI:C transfection
[20] = 4 hours post PolyI:C transfection
[21] = 8 hours post PolyI:C transfection

O=CC[C@@H](O)[C@H](O)[C@H](O)CO [2-DG, 2-deoxy-glucose]
virus replication [1]: reduction in virus replication | IFN-β and IL-6 production driven by RLR stimuli [2]: markedly enhanced | IFN-β expression [3]: promoted IFN-β expression

N#C/C(=C\c1cn(-c2ccccc2)c2ccccc12)C(=O)O [UK5099]
MAVS signaling and IFN-β induction [4]: decreased | lactate level [4]: elevated

O=C[C@H](O)[C@@H](O)[C@@H](O)[C@H](O)CO [galactose]
IFN-β and IL-6 production upon poly(I:C) or Sev challenge [5]: markedly enhanced | GFP expression [6]: no GFP expression | viral replication, as determined by GFP fluorescence [6]: marked reduction in viral replication | anaerobic glycolysis-mediated lactate production [7]: impaired

CC(O)C(=O)O (centres unmarked) [lactate]
IFN-β production [8]: consistently reduced | interaction between activated RIG-I and MAVS [9]: markedly reduced | effect of oxamate on MAVS mitochondria localization ([10]; lactate add-back with oxamate): compromised this effect | interaction with RLR signaling proteins in biotin pulldown ([11]; biotin-labeled lactate mixed with whole cell extracts (HEK293)): specifically interacted with MAVS | interaction with MAVS in cells under physiological conditions ([11]; complexes immunoprecipitated by anti-MAVS antibody from HEK293 cells): interacted with lactate | binding of MAVS to Biotin-lactate ([11]; pre-incubation with excessive lactate, data not shown): significantly attenuated

NC(=O)C(=O)[O-].[Na+] [sodium oxamate]
virus replication [1]: suppressing virus replication | IFN production [12]: no difference | IFN-β production [2]: enhanced | lactate production [13]: reduced | lactate level [14]: reduced | IRF3 and TBK1 phosphorylation and MAVS aggregation upon RLR activation [15]: promoted | interaction between activated RIG-I and MAVS [9]: enhanced | MAVS mitochondria localization ([10]; oxamate alone): potentiated | IFN-β expression [3]: promoted IFN-β expression

control peptide: corresponding control construct (SEQ ID NO:43) (YGRKKRRQRRRATGVLYLLVVLVWVAAQGVLTVL)
entry into cells [16]: found to enter into cells

polyI:C
mitochondria HK2 level [17]: decreased | Relative Quantity, 2/3-Phosphoglyceric Acid (185.0/97.0) [18, 19]: 0.4994 | Relative Quantity, 3HBA (103.0/59.0) [18, 19]: 0.6808 | Relative Quantity, Aconitate (173.0/85.0) [18, 19]: 0.7655 | Relative Quantity, Alpha-Ketoglutaric Acid (145.0/101.0) [18, 19]: 0.94 | Relative Quantity, D-GA3P (168.9/97.0) [18, 19]: 0.5042 | Relative Quantity, DHAP (168.9/78.8) [18, 19]: 0.6334 | Relative Quantity, F16BP/F26BP/G16BP (339.0/97.0) [18, 19]: 0.5666 | Relative Quantity, Fumaric Acid (115.0/71.0) [18, 19]: 0.7279 | Relative Quantity, G1P/G6P/F6P/F1P (259.0/97.0) [18, 19]: 0.712 | Relative Quantity, Glucose (179.0/89.0) [18, 19]: 1.118 | Relative Quantity, Lactate (89.0/43.0) [18, 19]: 0.536 | Relative Quantity, Malate (133.0/115.0) [18, 19]: 0.6979 | Relative Quantity, Maleic Acid (115.0/71.0 (2)) [18, 19]: 0.6194 | Relative Quantity, Malonic Acid (103.0/41.0) [18, 19]: 0.5644 | Relative Quantity, Oxalacetate (131.0/113.0) [18, 19]: 0.977 | Relative Quantity, PEP (166.9/79.0) [18, 19]: 0.3968 | Relative Quantity, Pyruvate (87.0/43.0) [18, 19]: 0.683 | Relative Quantity, Succinate (117.0/73.0) [18, 19]: 0.7616 | Relative Quantity, 2/3-Phosphoglyceric Acid (185.0/97.0) [18, 20]: 0.7985 | Relative Quantity, 3HBA (103.0/59.0) [18, 20]: 0.7735 | Relative Quantity, Aconitate (173.0/85.0) [18, 20]: 0.6576 | Relative Quantity, Alpha-Ketoglutaric Acid (145.0/101.0) [18, 20]: 0.8959 | Relative Quantity, D-GA3P (168.9/97.0) [18, 20]: 0.6278 | Relative Quantity, DHAP (168.9/78.8) [18, 20]: 0.935 | Relative Quantity, F16BP/F26BP/G16BP (339.0/97.0) [18, 20]: 0.9103 | Relative Quantity, Fumaric Acid (115.0/71.0) [18, 20]: 0.7094 | Relative Quantity, G1P/G6P/F6P/F1P (259.0/97.0) [18, 20]: 0.8706 | Relative Quantity, Glucose (179.0/89.0) [18, 20]: 1.093 | Relative Quantity, Lactate (89.0/43.0) [18, 20]: 0.657 | Relative Quantity, Malate (133.0/115.0) [18, 20]: 0.7843 | Relative Quantity, Maleic Acid (115.0/71.0 (2)) [18, 20]: 0.7566 | Relative Quantity, Malonic Acid (103.0/41.0) [18, 20]: 0.6946 | Relative Quantity, Oxalacetate (131.0/113.0) [18, 20]: 1.006 | Relative Quantity, PEP (166.9/79.0) [18, 20]: 0.7706 | Relative Quantity, Pyruvate (87.0/43.0) [18, 20]: 0.7115 | Relative Quantity, Succinate (117.0/73.0) [18, 20]: 0.8793 | Relative Quantity, 2/3-Phosphoglyceric Acid (185.0/97.0) [18, 21]: 1.118 | Relative Quantity, 3HBA (103.0/59.0) [18, 21]: 1.035 | Relative Quantity, Aconitate (173.0/85.0) [18, 21]: 0.7724 | Relative Quantity, Alpha-Ketoglutaric Acid (145.0/101.0) [18, 21]: 0.965 | Relative Quantity, D-GA3P (168.9/97.0) [18, 21]: 0.998 | Relative Quantity, DHAP (168.9/78.8) [18, 21]: 1.101 | Relative Quantity, F16BP/F26BP/G16BP (339.0/97.0) [18, 21]: 1.127 | Relative Quantity, Fumaric Acid (115.0/71.0) [18, 21]: 1.057 | Relative Quantity, G1P/G6P/F6P/F1P (259.0/97.0) [18, 21]: 1.034 | Relative Quantity, Glucose (179.0/89.0) [18, 21]: 0.9641 | Relative Quantity, Lactate (89.0/43.0) [18, 21]: 1.05 | Relative Quantity, Malate (133.0/115.0) [18, 21]: 0.9353 | Relative Quantity, Maleic Acid (115.0/71.0 (2)) [18, 21]: 0.9352 | Relative Quantity, Malonic Acid (103.0/41.0) [18, 21]: 0.9823 | Relative Quantity, Oxalacetate (131.0/113.0) [18, 21]: 1.032 | Relative Quantity, PEP (166.9/79.0) [18, 21]: 1.062 | Relative Quantity, Pyruvate (87.0/43.0) [18, 21]: 1.023 | Relative Quantity, Succinate (117.0/73.0) [18, 21]: 0.8886
